Data reported in patent publication EP4775208A1, “USE OF PRMT5 INHIBITOR IN TREATMENT OF TUMORS OR CANCERS” (Apeiron Therapeutics (Hong Kong) Ltd., priority 2023, dated 2025).

What was measured:
[1] = system: HCT-116 MTAP(-/-) deficient cells; test: Inhibition of proliferation of HCT-116 MTAP(-/-) deficient cells (Cell-Titer Glo); type: cell-based; conditions: 8 days
Procedure: Test 1: Compound's inhibitory activity on proliferation of HCT-116 MTAP(-/-) deficient cells.
Materials and Cells: HCT-116 MTAP(-/-) deficient cells obtained from Kyinno Bio (China); RPMI-1640 medium, fetal bovine serum, and penicillin-streptomycin purchased from Thermo Fisher Scientific (America); 384-well plates from PerkinElmer (America); Cell-Titer Glo assay kit from Promega (America).
Cell Culture: HCT116 MTAP(-/-) deficient cells were cultured in RPMI 1640 medium containing 10% fetal bovine serum and 1% penicillin-streptomycin at 37°C, 5% CO2. Only cells in logarithmic growth phase were used for experiments.
(§1) Cell Proliferation Inhibition Assay: The compound's inhibitory activity on HCT-116 MTAP(-/-) deficient cells was assessed using the Cell-Titer Glo assay kit. Adjusting cell concentration, 40 µL was seeded into a 384-well plate and cultured overnight at 37°C, 5% CO2. Each well received 40 nL of the compound, achieving concentrations from 0 to 10,000 nM (starting concentration 10,000 nM, 3-fold dilution, 10 points), with 0.1% DMSO. The cell plate was incubated for 8 days at 37°C, 5% CO2. Cell-Titer Glo reagent (40 µL) was added to measure cell viability.

[2] = system: HCT-116 MTAP wild-type cells; test: Inhibition of proliferation of HCT-116 MTAP wild-type cells (Cell-Titer Glo); type: cell-based; conditions: 8 days
Procedure: Test 2: Compound's inhibitory activity on proliferation of HCT-116 MTAP wild-type cells.
Materials and Cells: HCT-116 MTAP wild-type cells obtained from Kyinno Bio (China); RPMI-1640 medium, fetal bovine serum, and penicillin-streptomycin purchased from Thermo Fisher Scientific (America); 384-well plates from PerkinElmer (America); Cell-Titer Glo assay kit from Promega (America).
Cell Culture: HCT116 MTAP wild-type cells were cultured in RPMI 1640 medium containing 10% fetal bovine serum and 1% penicillin-streptomycin at 37°C, 5% CO2. Only cells in logarithmic growth phase were used for experiments.
as §1, with “MTAP wild-type” for “MTAP(-/-) deficient”

Compound | IC50 [1] [nM] | IC50 [2] [nM] | IC50 ([1]; Homo sapiens, HCT-116, 192 h) [nM] | IC50 ([2]; Homo sapiens, HCT-116, 192 h) [nM]
(S)-4-amino-N-(6-(cy clopropylsulfonyl)-2,3 -dihydrobenzo[b]thio phen-3-yl)-N-methyli midazo[1,5-a]quinoxa line-8-carboxamide [Example 133] | 71.4 | > 10000 |  | 
N#Cc1ccc2c(c1)OCC2N(C(=O)c1ccc2nc(N)c3cncn3c2c1)C1CC1 (centres unmarked) [Example 65, 4-amino-N-(6-cyano-2,3-dihydrobenzofuran-3-yl)-N-cyclopropyl imidazo[1,5-a]quinox aline-8-carboxamide] |  |  | 95.3 | 5950
Cc1ncc(-c2ccc3c(c2)OCC3N(C(=O)c2ccc3nc(N)c4cncn4c3c2)C2CC2)cn1 (centres unmarked) [Example 72, 4-amino-N-cyclopropyl-N-(6-(2-methylpyrimidin-5-yl)-2,3-dihydrobenzofuran-3-yl)imi dazo[1,5-a]quinoxaline-8-carboxamide] |  |  | 117 | > 20000
C[C@@H]1OC[C@@H](N(C)C(=O)c2cc3c(cn2)nc(N)c2cncn23)c2ccc(C(F)(F)F)cc21 (single isomer, unassigned) [Example 97] |  |  | 29.8 | 1550
CN(C(=O)c1ccc2nc(N)c3cnc(C4CC4)n3c2c1)[C@@H]1COc2cc(C(F)(F)F)ccc21 [Example 118, (S)-4-amino-1-cyclopro pyl-N-methyl-N-(6-(trifluoromethyl)-2,3-dihydrobenzofuran-3-yl)imida zo[1,5-a]quinoxaline-8-carboxamide] |  |  | 2930 | > 10000
CN(C(=O)c1cc2c(cc1Cl)nc(N)c1cncn12)[C@@H]1COc2cc(Br)ccc21 [Example 12, (S)-4-amino-N-(6-bromo-2,3-dihydrobenzof uran-3-yl)-7-chloro-N -methylimidazo[1,5-a] quinoxaline-8-carbox amide] |  |  | 6.1 | 1110
CN(C(=O)c1cc2c(cn1)nc(N)c1cncn12)[C@@H]1CCc2cc(C(F)(F)F)ncc21 [Example 24, (R)-4-amino-N-methy 1-N-(3-(trifluoromethy 1)-6,7-dihydro-5H-cyclopenta[c]pyridin-7-yl)imidazo[1,5-a]pyrido [3,4-e]pyrazine-8-carb oxamide] |  |  | 148 | > 10000
CN(C(=O)c1cc2c(cn1)nc(N)c1cncn12)C1CCc2ccccc21 (centres unmarked) [Example 125, 4-amino-N-(2,3-dihydro-1H-inden-1-yl)-N-methylimidazo[1,5-a] pyrido[3,4-e]pyrazine-8-carboxamide] |  |  | 2450 | > 10000
CN(C(=O)c1ccc2nc(N)c3cncn3c2c1)[C@@H]1CCc2cc(C(F)(F)F)ncc21 [Example 23, (R)-4-amino-N-methy 1-N-(3-(trifluoromethy 1)-6,7-dihydro-5H-cyclopenta[c]pyridin-7-yl)imidazo[1,5-a]quinox aline-8-carboxamide] |  |  | 120 | > 10000
Nc1nc2ccc(C(=O)N(C3CC3)[C@@H]3COc4cc(C(F)(F)F)ccc43)cc2n2cncc12 (single isomer, unassigned) [Example 84] |  |  | 21.9 | 1470
C[C@@H]1OC[C@@H](N(C)C(=O)c2ccc3nc(N)c4cncn4c3c2)c2ccc(F)cc21 (single isomer, unassigned) [Example 95] |  |  | 211 | > 10000
CN(C(=O)c1ccc2nc(N)c3cncn3c2c1)[C@@H]1COc2cc(C(F)(F)F)ncc21 [Example 26, (S)-4-amino-N-methy 1-N-(6-(trifluoromethy 1)-2,3-dihydrofuro[3,2-c]pyridin-3-yl)imidaz o[1,5-a]quinoxaline-8-carboxamide] |  |  | 67.7 | > 10000
CN(C(=O)c1ccc2nc(N)c3cc(F)cn3c2c1)[C@@H]1COc2cc(C(F)(F)F)ccc21 [Example 42, (S)-4-amino-2-fluoro-N-methyl-N-(6-(trifluoromethyl)-2,3-dihydrobenzofuran-3-yl)pyrr olo[1,2-a]quinoxaline-8-carboxamide] |  |  | 660 | 5460
Cc1cc(-c2ccc3c(c2)OCC[C@H]3N(C)C(=O)c2cc3c(cc2F)nc(N)c2cncn23)on1 [Example 116, (R)-4-amino-7-fluoro-N-methyl-N-(7-(3-methylisoxazol-5-yl)chroman-4-yl)imidazo[1,5-a]quinoxaline-8-carb oxamide] |  |  | 109 | > 10000
CN(C(=O)c1ccc2nc(N)c3cncn3c2c1)[C@@H]1COc2cc(C#N)ccc21 [Example 10, (S)-4-amino-N-(6-cyano-2,3-dihydrobenzof uran-3-yl)-N-methyli midazo[1,5-a]quinoxa line-8-carboxamide] |  |  | 31.2 | 3110
CN(C(=O)c1ccc2nc(N)c3cncn3c2c1)[C@@H]1COc2cc(F)ccc21 [Example 68, (S)-4-amino-N-(6-fluoro-2,3-dihydrobenzofuran-3-yl)-N-methyli midazo[1,5-a]quinoxa line-8-carboxamide] |  |  | 382 | 8570
CN(C(=O)c1ccc2nc(N)c3cncn3c2c1)[C@@H]1COc2cc(P(C)(C)=O)ccc21 [Example 20, (S)-4-amino-N-(6-(dimethylphosphoryl)-2,3-dihydrobenzofuran-3-yl)-N-methylimidaz o[1,5-a]quinoxaline-8-carboxamide] |  |  | > 3000 | > 10000
CN(C(=O)c1ccc2nc(N)c3cncn3c2c1)[C@@H]1COCc2ccc(C(F)(F)F)cc21 (single isomer, unassigned) [Example 94] |  |  | 80.8 | 5170
CN(C(=O)c1ccc2nc(N)c3cncn3c2c1)[C@@H]1COc2ccc(F)cc21 [Example 66, (S)-4-amino-N-(5-fluoro-2,3-dihydrobenzofuran-3-yl)-N-methyli midazo[1,5-a]quinoxa line-8-carboxamide] |  |  | 2260 | > 20000
Nc1nc2cc(F)c(C(=O)N(C3CC3)C3COc4cc(N5CCOCC5)ccc43)cc2n2cncc12 (centres unmarked) [Example 121, 4-amino-N-cyclopropyl-7-fluoro-N-(6-mor pholino-2,3-dihydrobenzofuran-3-yl)imidaz o[1,5-a]quinoxaline-8-carboxamide] |  |  | 73.7 | > 10000
Nc1nc2cc(F)c(C(=O)N(C3CC3)C3CCOc4cc(-c5cncc(C(F)(F)F)c5)cnc43)cc2n2cncc12 (centres unmarked) [Example 59, 4-amino-N-cyclopropyl-7-fluoro-N-(7-(5-(trifluoromethyl)pyridin-3-yl)-3,4-dihydro-2H-pyrano[3,2-b]pyridin-4-yl)imidazo [1,5-a]quinoxaline-8-carboxamide] |  |  | 711 | > 10000
CN(C(=O)c1cc2c(cc1F)nc(N)c1cncn12)C1CCOc2cc(C(F)(F)F)cnc21 (centres unmarked) [Example 110, 4-amino-7-fluoro-N-methyl-N-(7-(trifluoromethyl)-3,4-dihydro-2 H-pyrano[3,2-b]pyridin-4-yl)imidazo[1,5-a] quinoxaline-8-carbox amide] |  |  | > 3000 | > 10000
(R)-4-amino-N-(6-bromo-2,3-dihydrobenzofuran-3-yl)-N-cyclopropylimidazo[1,5-a]quinoxaline-8-carboxamide [Example 81] | 1790 | 2360 |  | 
CN(C(=O)c1cc2c(cc1F)nc(N)c1cncn12)C1CSc2cc(C(F)(F)F)ccc21 (centres unmarked) [Example 129, 4-amino-7-fluoro-N-methyl-N-(6-(trifluoromethyl)-2,3-dihydrobenzo[b]thiophen-3-yl) imidazo[1,5-a]quinox aline-8-carboxamide] |  |  | 14.5 | 2680
CC1OC[C@@H](N(C)C(=O)c2cc3c(cn2)nc(N)c2cncn23)c2ccc(F)cc21 (stereo partly drawn) [Example 62, 4-amino-N-((4S)-7-fluoro-1-methylisochroman-4-yl)-N-methyli midazo[1,5-a]pyrido[3,4-e]pyrazine-8-carb oxamide] |  |  | 19.7 | 3710
(S)-4-amino-N-(6-chl oro-2,3-dihydrobenzo furan-3-yl)-N-methyli midazo[1,5-a]quinoxa line-8-carboxamide [Example 70] | 54 | 3890 |  | 
(R)-4-amino-7-fluoro-N-methyl-N-(7-(1-(tri fluoromethyl)-1H-pyr azol-4-yl)chroman-4-ylimidazo[1,5-a]quin oxaline-8-carboxamid e [Example 113] | 88.1 | > 10000 |  | 
CN(C(=O)c1cc2c(cc1F)nc(N)c1cncn12)[C@@H]1CCOc2cc(-c3ccnn3C)ccc21 [Example 115, (R)-4-amino-7-fluoro-N-methyl-N-(7-(1-methyl-1H-pyrazol-5-yl)chroman-4-yl)imidazo[1,5-a]quinoxaline-8-carboxamide] |  |  | 84.3 | > 10000
